Test results reported in the CheMixHub viscosity set.
± gives the uncertainty stated by the source.

Assay: xn = mol fraction of the nth substance listed

CCCCCCCCCCO + Cc1ccc(C)cc1
viscosity [mPa·s], 101 kPa
Details	298.15 K	308.15 K
x2 = 0.0806	9.447 ± 0.065	6.565 ± 0.047
x2 = 0.1731	7.145 ± 0.051	5.045 ± 0.038
x2 = 0.2506	5.591 ± 0.041	4.011 ± 0.03
x2 = 0.3197	4.463 ± 0.033	3.242 ± 0.024
x2 = 0.3693	3.779 ± 0.028	2.781 ± 0.021
x2 = 0.4336	3.053 ± 0.023	2.275 ± 0.018
x2 = 0.4929	2.512 ± 0.019	1.9 ± 0.015
x2 = 0.5771	1.908 ± 0.015	1.481 ± 0.012
x2 = 0.662	1.456 ± 0.012	1.153 ± 0.011
x2 = 0.7265	1.2 ± 0.011	0.963 ± 0.009
x2 = 0.7763	1.04 ± 0.01	0.845 ± 0.009
x2 = 0.8293	0.9 ± 0.009	0.744 ± 0.008
x2 = 0.8891	0.776 ± 0.008	0.648 ± 0.008
x2 = 0.9369	0.693 ± 0.008	0.59 ± 0.008

CCOC(=O)OCC + Cc1ccc(C)cc1
viscosity [mPa·s]
Details	293.15 K	298.15 K	303.15 K	323.15 K
101 kPa, x1 = 0.0997	0.6494 ± 0.006	0.6068 ± 0.0057	0.5681 ± 0.0053	0.4546 ± 0.0044
101 kPa, x1 = 0.1509	0.6571 ± 0.0061	0.6141 ± 0.0058	0.5733 ± 0.0054	0.4578 ± 0.0045
101 kPa, x1 = 0.2121	0.6663 ± 0.0062	0.6229 ± 0.0059	0.5814 ± 0.0055	0.4633 ± 0.0046
101 kPa, x1 = 0.2979	0.6785 ± 0.0064	0.6347 ± 0.0061	0.5918 ± 0.0057	0.4704 ± 0.0047
101 kPa, x1 = 0.3942	0.693 ± 0.0067	0.6486 ± 0.0064	0.6058 ± 0.0059	0.4794 ± 0.0049
101 kPa, x1 = 0.495	0.7081 ± 0.007	0.6627 ± 0.0066	0.618 ± 0.0062	0.4891 ± 0.0051
101 kPa, x1 = 0.5955	0.7239 ± 0.0073	0.6787 ± 0.007	0.6309 ± 0.0065	0.4973 ± 0.0053
101 kPa, x1 = 0.7004	0.7423 ± 0.0078	0.6948 ± 0.0073	0.6471 ± 0.0068	0.508 ± 0.0055
101 kPa, x1 = 0.8	0.7603 ± 0.0082	0.7126 ± 0.0077	0.6639 ± 0.0072	0.5178 ± 0.0058
101 kPa, x1 = 0.8891	0.7782 ± 0.0086	0.7304 ± 0.0081	0.6786 ± 0.0075	0.5292 ± 0.0061
101.3 kPa, x1 = 0.1027	–	0.607 ± 0.008	–	–
101.3 kPa, x1 = 0.1721	–	0.615 ± 0.008	–	–
101.3 kPa, x1 = 0.2449	–	0.622 ± 0.008	–	–
101.3 kPa, x1 = 0.3566	–	0.636 ± 0.008	–	–
101.3 kPa, x1 = 0.4208	–	0.643 ± 0.008	–	–
101.3 kPa, x1 = 0.4919	–	0.658 ± 0.009	–	–
101.3 kPa, x1 = 0.6427	–	0.68 ± 0.009	–	–
101.3 kPa, x1 = 0.716	–	0.687 ± 0.009	–	–
101.3 kPa, x1 = 0.7162	–	0.687 ± 0.009	–	–
101.3 kPa, x1 = 0.8043	–	0.701 ± 0.009	–	–
101.3 kPa, x1 = 0.9158	–	0.723 ± 0.009	–	–

Cc1ccccc1C + Cc1ccc(C)cc1
101.3 kPa
Details	viscosity [mPa·s]
298.15 K, x1 = 0.0748	0.6114 ± 0.0052
298.15 K, x1 = 0.1866	0.6242 ± 0.0053
298.15 K, x1 = 0.3032	0.641 ± 0.0054
298.15 K, x1 = 0.4147	0.6549 ± 0.0055
298.15 K, x1 = 0.5702	0.6779 ± 0.0057
298.15 K, x1 = 0.6823	0.6995 ± 0.0058
298.15 K, x1 = 0.8109	0.7176 ± 0.0059
298.15 K, x1 = 0.9402	0.7417 ± 0.0061
303.15 K, x1 = 0.0902	0.5764 ± 0.005
303.15 K, x1 = 0.2065	0.5904 ± 0.0051
303.15 K, x1 = 0.3178	0.604 ± 0.0052
303.15 K, x1 = 0.4339	0.6204 ± 0.0053
303.15 K, x1 = 0.4577	0.6237 ± 0.0053
303.15 K, x1 = 0.5832	0.642 ± 0.0054
303.15 K, x1 = 0.6243	0.6474 ± 0.0055
303.15 K, x1 = 0.7864	0.6729 ± 0.0056
303.15 K, x1 = 0.8933	0.6889 ± 0.0057

Cc1ccccc1C + Cc1cccc(C)c1
viscosity [mPa·s], 101.3 kPa
Details	x1 = 0.0817	x1 = 0.1825	x1 = 0.2946	x1 = 0.4285	x1 = 0.5533	x1 = 0.6715	x1 = 0.7904	x1 = 0.9	x1 = 0.9001
298.15 K	0.5998 ± 0.0052	0.6144 ± 0.0052	0.6303 ± 0.0054	0.6512 ± 0.0055	0.6731 ± 0.0056	0.6924 ± 0.0058	0.7148 ± 0.0059	0.7349 ± 0.006	–
303.15 K	0.5668 ± 0.0049	0.5783 ± 0.005	0.5938 ± 0.0051	0.6119 ± 0.0052	0.631 ± 0.005	0.6486 ± 0.0055	0.6675 ± 0.0056	–	0.6859 ± 0.0057
